In US20180264146A1, “NOVEL IMAGING COMPOUNDS” (AC IMMUNE S.A., priority 2015, published 2018):

Assays:
[1] = molecular target: Tau in human Alzheimer disease brain homogenate (stage Braack V), [18F]-labeled Tau-Reference binder (Homo sapiens, UniProt P10636); assay: Tau radio-binding competition assay; conditions: competition with [18F]-labeled Tau-Reference binder, human AD brain homogenate
Description: Tau Radio-Binding Competition Assay
20 μg of human Alzheimer disease brain homogenate (stage Braack V) was incubated with a dilution series of each test compound (1000 to 0.06 nM) in the presence of 800 Bq of [^18F]-labeled Tau-Reference binder. The samples were shaken at 110 rpm for 45 min at 37° C. Samples were then filtered through GF/B 96 well filter plates and two times washed with 300 μl assay buffer (PBS containing 0.1% BSA and 2% DMSO). Thereafter, filter plates were sealed and a Fuji Film Imaging Plate (BAS-SR2025) were placed on top. The imaging plate was analyzed the next day using a Fuji Film BAS-5000. Non-specific signal was determined with samples containing [^18F]-labeled Tau-Reference binder in the presence of assay buffer missing brain substrate and competitor. Specific binding was calculated by subtracting the non-specific signal from the measured sample signal. The unblocked [^18F]-labeled Tau-Reference binder signal was defined as total binding. IC50 values were calculated by Prism V6 (GraphPad) using total binding as 100%.

[2] = molecular target: T1, MAO-A human-recombinant (Homo sapiens, UniProt P21397); assay: Monoamine oxidase A (MAO-A) assay (MAO-Glo); type: biochemical; conditions: read-out: MAO A binding
T1 construct: purchased Sigma-Aldrich M7316
T1 sequence (P21397 1-527): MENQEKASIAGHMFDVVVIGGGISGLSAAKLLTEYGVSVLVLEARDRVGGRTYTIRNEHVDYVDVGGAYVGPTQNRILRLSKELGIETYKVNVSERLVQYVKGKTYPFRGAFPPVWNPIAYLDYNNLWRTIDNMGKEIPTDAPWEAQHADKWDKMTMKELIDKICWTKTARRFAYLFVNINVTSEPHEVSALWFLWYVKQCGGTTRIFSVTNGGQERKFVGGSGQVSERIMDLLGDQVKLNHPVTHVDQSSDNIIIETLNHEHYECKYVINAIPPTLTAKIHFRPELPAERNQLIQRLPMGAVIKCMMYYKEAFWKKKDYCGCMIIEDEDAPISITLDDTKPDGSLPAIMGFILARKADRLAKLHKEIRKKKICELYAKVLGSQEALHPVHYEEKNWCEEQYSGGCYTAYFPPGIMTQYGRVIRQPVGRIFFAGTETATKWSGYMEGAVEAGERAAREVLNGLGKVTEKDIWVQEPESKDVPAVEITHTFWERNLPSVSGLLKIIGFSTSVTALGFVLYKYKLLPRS
Description: Monoamine Oxidase A (MAO-A) Assay
Compounds were tested for their capacity to modulate MAO-A activity within the MAO-Glo™ Assay (Promega, Cat.# V1402). In each well of a 96-well plate, 12.5 μl of 4×MAO Substrate solution (end-concentration in assay: 40 μM) were mixed with 12.5 μl of a 4× solution of the corresponding test compound (end-concentrations ranged from 10 μM to 1.37 nM). In the absence of a test compound (i.e. to gauge the total MAO-A activity), the corresponding volume of MAO Reaction Buffer (100 mM HEPES (pH 7.5), 5% glycerol) was added. To initiate the MAO reaction, 25 μl of 2×MAO-A enzyme solution (MAO-A human-recombinant, Sigma-Aldrich, Cat.# M7316; 1 μg MAO-A enzyme/25 μl MAO Reaction Buffer) were added per well and mixed briefly. For negative control reactions, 25 μl of MAO Reaction Buffer were added. Thereafter the plate was incubated at room temperature for 1 hour, following which, 50 μl of reconstituted Luciferin Detection Reagent were added per well and mixed briefly. The plate was then incubated at room temperature for 20 minutes to generate and stabilize the luminescent signal. The luminescent signal was subsequently measured and recorded on the TopCountNXT™ luminescence counter (PerkinElmer). Data were analyzed and graphs were prepared using the Graphpad Prism 6 software.

[3] = molecular target: T2, MAO-B human-recombinant (Homo sapiens, UniProt P27338); assay: MAO-B assay (MAO-Glo); type: biochemical; conditions: read-out: MAO B binding
T2 construct: purchased Sigma-Aldrich M7441
T2 sequence (P27338 1-520): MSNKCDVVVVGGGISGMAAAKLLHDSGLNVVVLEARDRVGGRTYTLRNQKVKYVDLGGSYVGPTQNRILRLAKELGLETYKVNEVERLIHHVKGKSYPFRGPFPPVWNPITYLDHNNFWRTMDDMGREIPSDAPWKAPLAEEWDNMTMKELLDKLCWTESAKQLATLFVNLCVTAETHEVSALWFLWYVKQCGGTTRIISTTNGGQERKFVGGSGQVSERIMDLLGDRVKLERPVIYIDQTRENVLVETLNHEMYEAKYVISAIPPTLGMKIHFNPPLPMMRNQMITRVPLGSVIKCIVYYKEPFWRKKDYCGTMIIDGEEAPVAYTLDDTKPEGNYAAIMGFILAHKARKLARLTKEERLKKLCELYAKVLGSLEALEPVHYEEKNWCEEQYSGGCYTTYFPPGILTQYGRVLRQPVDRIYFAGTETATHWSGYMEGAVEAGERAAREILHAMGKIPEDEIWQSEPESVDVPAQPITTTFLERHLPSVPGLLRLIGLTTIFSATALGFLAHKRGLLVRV
Description: Compounds were tested for their capacity to modulate MAO-B activity within the MAO-Glo™ Assay (Promega, Cat.# V1402). In each well of a 96-well plate, 12.5 μl of 4×MAO Substrate solution (end-concentration in assay: 4 μM) were mixed with 12.5 μl of a 4× solution of the corresponding test compound (end-concentrations ranged from 10 μM to 1.37 nM). In the absence of a test compound (i.e. to gauge the total MAO-B activity), the corresponding volume of MAO-B Reaction Buffer (100 mM HEPES (pH 7.5), 5% glycerol, 10% dimethyl sulphoxide) was added. To initiate the MAO reaction, 25 μl of 2×MAO-B enzyme solution (MAO-B human—recombinant, Sigma-Aldrich, Cat.# M7441; 1 μg MAO-B enzyme/25 μl MAO-B Reaction Buffer) were added per well and mixed briefly. For negative control reactions, 25 μl of MAO-B Reaction Buffer were added. Thereafter the plate was incubated at room temperature for 1 hour, following which, 50 μl of reconstituted Luciferin Detection Reagent were added per well and mixed briefly. The plate was then incubated at room temperature for 20 minutes to generate and stabilize the luminescent signal. The luminescent signal was subsequently measured and recorded on the TopCountNXT™ luminescence counter (PerkinElmer). Data were analyzed and graphs were prepared using the Graphpad Prism 6 software.

Tau in human Alzheimer disease brain homogenate (stage Braack V), [18F]-labeled Tau-Reference binder, sequence (P10636 623-695 limits assumed): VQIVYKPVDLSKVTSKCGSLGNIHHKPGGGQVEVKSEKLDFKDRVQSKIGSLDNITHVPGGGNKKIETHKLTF

**Q.** With `F[C@H]1CCN(c2ccc3c(n2)[nH]c2ccncc23)C1` [Example 1] as the compound, how does the IC50 [1] read?
**A.** 6 nM

**Q.** What about the IC50 [2] of the same compound?
**A.** > 1000 nM

**Q.** And the IC50 [3]?
**A.** > 1000 nM

**Q.** What does the source list for `FCCOC1CCN(c2ccc3c(n2)[nH]c2ccncc23)CC1` [Example 2]?
**A.** IC50 [1]: 4 nM; IC50 [2]: > 6000 nM; IC50 [3]: > 1000 nM

**Q.** `FCCOCCOC1CCN(c2ccc3c(n2)[nH]c2ccncc23)CC1` [Example 5] was tested. Which IC50 [1] did it give?
**A.** 6 nM

**Q.** And the IC50 [2]?
**A.** > 2000 nM

**Q.** And the IC50 [3]?
**A.** > 1000 nM

**Q.** For `F[C@@H]1CCN(c2ccc3c(n2)[nH]c2ccncc23)C1` [Example 6], which IC50 [1] is on record?
**A.** 7 nM

**Q.** And the IC50 [2]?
**A.** 940 nM

**Q.** What about the IC50 [3] of the same compound?
**A.** > 1000 nM

**Q.** Which IC50 [1] does the source give for `OC(CF)COC1CCN(c2ccc3c(n2)[nH]c2ccncc23)CC1` (stereo not shown) [Example 7] here?
**A.** 3 nM

**Q.** What about the IC50 [3] of the same compound?
**A.** > 1000 nM

**Q.** How did the IC50 [1] turn out when `OC1(CF)CCN(c2ccc3c(n2)[nH]c2ccncc23)CC1` [Example 8] was run?
**A.** 40 nM

**Q.** What about the IC50 [2] of the same compound?
**A.** 940 nM

**Q.** What about the IC50 [3] of the same compound?
**A.** > 1000 nM

**Q.** `FC1CC2(C1)CN(c1ccc3c(n1)[nH]c1ccncc13)C2` [Example 12] was tested. Which IC50 [1] did it give?
**A.** 13 nM

**Q.** And the IC50 [2]?
**A.** 570 nM

**Q.** What about the IC50 [3] of the same compound?
**A.** > 1000 nM

**Q.** `FCCOC1CC2(C1)CN(c1ccc3c(n1)[nH]c1ccncc13)C2` [Example 13] was tested. Which IC50 [1] did it give?
**A.** 16 nM

**Q.** What about the IC50 [2] of the same compound?
**A.** > 2000 nM

**Q.** And the IC50 [3]?
**A.** > 1000 nM

**Q.** For `[2H]C([2H])(F)CCOC1CCN(c2ccc3c(n2)[nH]c2ccncc23)CC1` [Example 19], which IC50 [1] is on record?
**A.** 2.3 nM

**Q.** For `FCCOCCC1CCN(c2ccc3c(n2)[nH]c2ccncc23)CC1` [Example 21], which IC50 [1] is on record?
**A.** 1.5 nM

**Q.** Which IC50 [1] does the source give for `FCC(F)COC1CCN(c2ccc3c(n2)[nH]c2ccncc23)CC1` (stereo not shown) [Example 24] here?
**A.** 8 nM

**Q.** How did the IC50 [1] turn out when `F[C@@H]1CCCN(c2ccc3c(n2)[nH]c2ccncc23)C1` [Example 25] was run?
**A.** 5.4 nM

**Q.** And the IC50 [2]?
**A.** 1020 nM

**Q.** For `F[C@H]1CCCN(c2ccc3c(n2)[nH]c2ccncc23)C1` [Example 26], which IC50 [1] is on record?
**A.** 16 nM

**Q.** Which IC50 [1] does the source give for `FC1CCN(c2ccc3c(n2)[nH]c2ccncc23)CC1` [Example 27] here?
**A.** 3 nM

**Q.** Which IC50 [1] does the source give for `FC1CC2(CCN(c3ccc4c(n3)[nH]c3ccncc34)CC2)C1` [Example 28] here?
**A.** 5.2 nM
